Assay results reported in patent US10899759B2, “Positive allosteric modulators of the muscarinic acetylcholine receptor M1” (Vanderbilt University, priority 2016, dated 2021).

Target: T1, human mAChR M1 (Homo sapiens, UniProt P11229)
T1 construct: host or cells: CHO-K1
T1 sequence (P11229 1-460): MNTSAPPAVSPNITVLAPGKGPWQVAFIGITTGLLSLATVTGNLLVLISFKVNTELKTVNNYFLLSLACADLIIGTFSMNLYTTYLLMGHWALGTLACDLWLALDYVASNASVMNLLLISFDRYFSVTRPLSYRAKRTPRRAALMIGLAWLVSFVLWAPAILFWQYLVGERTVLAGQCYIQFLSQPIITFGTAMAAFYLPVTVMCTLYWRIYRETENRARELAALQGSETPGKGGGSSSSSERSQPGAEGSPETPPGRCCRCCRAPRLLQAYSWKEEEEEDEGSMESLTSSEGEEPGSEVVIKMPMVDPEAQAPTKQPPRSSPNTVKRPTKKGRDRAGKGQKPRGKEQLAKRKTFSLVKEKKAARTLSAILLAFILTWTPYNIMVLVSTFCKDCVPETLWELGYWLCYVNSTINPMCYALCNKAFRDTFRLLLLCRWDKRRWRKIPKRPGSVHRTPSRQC
Experiment: mAChR M1 cell-based functional assay (calcium mobilization, Fluo-4, FDSS)
Conditions: CHO-K1 cells stably expressing hM1; for Emax: EC20 acetylcholine response, read-out: Human M1 Emax; for EC50: positive allosteric modulator activity as increase in the EC20 acetylcholine response
In short: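 CHO-K1 cells stably expressing muscarinic receptor, loaded with Fluo-4; 11-point 1:3 compound series added and calcium flux read over 300 s at 1 Hz. Agonism from direct calcium rise, PAM activity as potentiation of EC20 acetylcholine, antagonism as decrease of EC80 acetylcholine; four-parameter logistic fits.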

| SMILES | Emax [%] | EC50 [nM] |
| --- | --- | --- |
| Cn1ccc(-c2ccc(Cc3cc(C(=O)NCC4CCOCC4)nc4sccc34)cc2)n1 [Compound 94, 4-[[4-(1-methylpyrazol-3-yl)phenyl]methyl]-N-(tetrahydropyran-4-ylmethyl)thieno[2,3-b]pyridine-6-carboxamide] | 61.4 | 630 |
| COCCNC(=O)c1cc(Cc2ccc(-c3ccn(C)n3)nc2)c2ccsc2n1 [Compound 111, N-(2-methoxyethyl)-4-[[6-(1-methylpyrazol-3-yl)-3-pyridyl]methyl]thieno[2,3-b]pyridine-6-carboxamide] | 63.2 | 370 |
| Cn1cc(-c2ccc(Cc3cc(C(=O)NC4CC(F)C4)nc4sccc34)cn2)cn1 (centres unmarked) [Compound 125, N-(3-fluorocyclobutyl)-4-[[6-(1-methylpyrazol-4-yl)-3-pyridyl]methyl]thieno[2,3-b]pyridine-6-carboxamide] | 58.6 | 940 |
| CC1CC(NC(=O)c2cc(Cc3ccc(-c4ccn(C)n4)cc3)c3ccsc3n2)CC(C)O1 (centres unmarked) [Compound 91, N-(2,6-dimethyltetrahydropyran-4-yl)-4-[[4-(1-methylpyrazol-3-yl)phenyl]methyl]thieno[2,3-b]pyridine-6-carboxamide] | 56.2 | 520 |
| Cc1nc(-c2ccc(Cc3cc(C(=O)N[C@H]4CCOC4)nc4sccc34)cc2)co1 [Compound 136, 4-[[4-(2-methyloxazol-4-yl)phenyl]methyl]-N-[(3S)-tetrahydrofuran-3-yl]thieno[2,3-b]pyridine-6-carboxamide] | 60.6 | 620 |
| Cn1ccc2c(Cc3ccc(-c4nccs4)cc3)cc(C(=O)NC3CC4(COC4)C3)nc21 [Compound 62, 1-methyl-N-(2-oxaspiro[3.3]heptan-6-yl)-4-[(4-thiazol-2-ylphenyl)methyl]pyrrolo[2,3-b]pyridine-6-carboxamide] | 60.6 | 870 |
| C[C@@H]1CC(NC(=O)c2cc(Cc3ccc(-c4nccs4)cc3)c3ccn(C)c3n2)C[C@H](C)O1 (stereo partly drawn) [Compound 65, N-[(2S,6R)-2,6-dimethyltetrahydropyran-4-yl]-1-methyl-4-[(4-thiazol-2-ylphenyl)methyl]pyrrolo[2,3-b]pyridine-6-carboxamide] | 58.6 | 2780 |
| Cn1ccc(-c2ccc(Cc3cc(C(=O)NC4CCOCC4(C)C)nc4sccc34)cn2)n1 (centres unmarked) [Compound 105, N-(3,3-dimethyltetrahydropyran-4-yl)-4-[[6-(1-methylpyrazol-3-yl)-3-pyridyl]methyl]thieno[2,3-b]pyridine-6-carboxamide] | 63.5 | 370 |
| Cn1ccc(-c2ccc(Cc3cc(C(=O)NCC4CCOC4)nc4sccc34)cc2)n1 (centres unmarked) [Compound 95, 4-[[4-(1-methylpyrazol-3-yl)phenyl]methyl]-N-(tetrahydrofuran-3-ylmethyl)thieno[2,3-b]pyridine-6-carboxamide] | 65.5 | 370 |
| O=C(N[C@@H]1CCOC1)c1cc(Cc2ccc(-n3cccn3)cc2)c2ccsc2n1 [Compound 78, 4-[(4-pyrazol-1-ylphenyl)methyl]-N-[(3R)-tetrahydrofuran-3-yl]thieno[2,3-b]pyridine-6-carboxamide] | 68.5 | 1720 |
| Cn1ccc(-c2ccc(Cc3cc(C(=O)NC4CC5(COC5)C4)nc4c3ccn4C)cc2)n1 [Compound 40, 1-methyl-4-[[4-(1-methylpyrazol-3-yl)phenyl]methyl]-N-(2-oxaspiro[3.3]heptan-6-yl)pyrrolo[2,3-b]pyridine-6-carboxamide] | 74 | 750 |
| Cn1ncc2c(Cc3ccc(-c4cscn4)cc3)cc(C(=O)NCC3CCOCC3)nc21 [Compound 29, 1-methyl-N-(tetrahydropyran-4-ylmethyl)-4-[(4-thiazol-4-ylphenyl)methyl]pyrazolo[3,4-b]pyridine-6-carboxamide] | 48.1 | 1610 |
| Cc1nc(-c2ccc(Cc3cc(C(=O)NC4CCOCC4C)nc4sccc34)cc2)co1 (centres unmarked) [Compound 134, 4-[[4-(2-methyloxazol-4-yl)phenyl]methyl]-N-(3-methyltetrahydropyran-4-yl)thieno[2,3-b]pyridine-6-carboxamide] | 51.4 | 1220 |

Compounds with a lower EC50, results first:

| Emax [%] | EC50 [nM] | SMILES |
| --- | --- | --- |
| 78.6 | 130 | Cn1ccc(-c2ccc(Cc3cc(C(=O)N[C@H]4CCCC[C@@H]4O)nc4c3ccn4C)cc2)n1 [Compound 38, N-[(1S,2S)-2-hydroxycyclohexyl]-1-methyl-4-[[4-(1-methylpyrazol-3-yl)phenyl]methyl]pyrrolo[2,3-b]pyridine-6-carboxamide] |
| 69.9 | 60 | CCn1ccc2c(Cc3ccc(-n4cccn4)cc3)cc(C(=O)N[C@H]3CCCC[C@@H]3O)nc21 [Compound 10, 1-ethyl-N-[(1S,2S)-2-hydroxycyclohexyl]-4-[(4-pyrazol-1-ylphenyl)methyl]pyrrolo[2,3-b]pyridine-6-carboxamide] |
| 63.4 | 10 | Cn1ccc2c(Cc3ccc(-n4cccn4)cc3)cc(C(=O)N[C@H]3CCOC[C@@H]3O)nc21 [Compound 16, N-[(3R,4S)-3-hydroxytetrahydropyran-4-yl]-1-methyl-4-[(4-pyrazol-1-ylphenyl)methyl]pyrrolo[2,3-b]pyridine-6-carboxamide] |
| 55.7 | 150 | Cn1cc(-c2ccc(Cc3cc(C(=O)NC4CCOCC4(C)C)nc4sccc34)cn2)cn1 (centres unmarked) [Compound 117, N-(3,3-dimethyltetrahydropyran-4-yl)-4-[[6-(1-methylpyrazol-4-yl)-3-pyridyl]methyl]thieno[2,3-b]pyridine-6-carboxamide] |
| 56.9 | 80 | Cn1cc(-c2ccc(Cc3cc(C(=O)N[C@H]4CCOC4)nc4sccc34)cn2)cn1 [Compound 120, 4-[[6-(1-methylpyrazol-4-yl)-3-pyridyl]methyl]-N-[(3S)-tetrahydrofuran-3-yl]thieno[2,3-b]pyridine-6-carboxamide] |
| 56.2 | 100 | Cn1cc(-c2ccc(Cc3cc(C(=O)NC4CC5(COC5)C4)nc4sccc34)cn2)cn1 [Compound 123, 4-[[6-(1-methylpyrazol-4-yl)-3-pyridyl]methyl]-N-(2-oxaspiro[3.3]heptan-6-yl)thieno[2,3-b]pyridine-6-carboxamide] |
| 65.9 | 140 | Cn1ccc(-c2ccc(Cc3cc(C(=O)NC4CC(F)C4)nc4sccc34)cc2)n1 (centres unmarked) [Compound 97, N-(3-fluorocyclobutyl)-4-[[4-(1-methylpyrazol-3-yl)phenyl]methyl]thieno[2,3-b]pyridine-6-carboxamide] |
| 41.4 | 60 | Cc1nc(-c2ccc(Cc3cc(C(=O)N[C@H]4CCOC[C@@H]4O)nc4sccc34)cc2)co1 [Compound 130, N-[(3R,4S)-3-hydroxytetrahydropyran-4-yl]-4-[[4-(2-methyloxazol-4-yl)phenyl]methyl]thieno[2,3-b]pyridine-6-carboxamide] |
| 54.8 | 50 | CC1CC(NC(=O)c2cc(Cc3ccc(-c4cnn(C)c4)nc3)c3ccsc3n2)CC(C)O1 (centres unmarked) [Compound 116, N-(2,6-dimethyltetrahydropyran-4-yl)-4-[[6-(1-methylpyrazol-4-yl)-3-pyridyl]methyl]thieno[2,3-b]pyridine-6-carboxamide] |
| 87.9 | 180 | Cn1cc(-c2ccc(Cc3cc(C(=O)NC4CCOC(C)(C)C4)nc4c3ccn4C)cn2)cn1 (centres unmarked) [Compound 49, N-(2,2-dimethyltetrahydropyran-4-yl)-1-methy1-4-[[6-(1-methylpyrazol-4-yl)-3-pyridyl]methyl]pyrrolo[2,3-b]pyridine-6-carboxamide] |
| 73.4 | 140 | O=C(NC1CCOCC1)c1cc(Cc2ccc(-n3cccn3)cc2)c2ccsc2n1 [Compound 71, 4-[(4-pyrazol-1-ylphenyl)methyl]-N-tetrahydropyran-4-yl-thieno[2,3-b]pyridine-6-carboxamide] |
| 52.2 | 70 | CC1COCCC1NC(=O)c1cc(Cc2ccc(-c3cnn(C)c3)nc2)c2ccsc2n1 (centres unmarked) [Compound 118, 4-[[6-(1-methylpyrazol-4-yl)-3-pyridyl]methyl]-N-(3-methyltetrahydropyran-4-yl)thieno[2,3-b]pyridine-6-carboxamide] |
| 66.4 | 30 | Cn1ccc2c(Cc3ccc(-n4cccn4)cc3)cc(C(=O)N[C@H]3CCCC[C@@H]3O)nc21 [Compound 17, N-[(1S,2S)-2-hydroxycyclohexyl]-1-methyl-4-[(4-pyrazol-1-ylphenyl)methyl]pyrrolo[2,3-b]pyridine-6-carboxamide] |
| 69.9 | 280 | Cn1ccc(-c2ccc(Cc3cc(C(=O)NC4CC5(COC5)C4)nc4sccc34)cc2)n1 [Compound 96, 4-[[4-(1-methylpyrazol-3-yl)phenyl]methyl]-N-(2-oxaspiro[3.3]heptan-6-yl)thieno[2,3-b]pyridine-6-carboxamide] |
| 57.9 | 140 | Cc1nc(-c2ccc(Cc3cc(C(=O)NC4CCOCC4)nc4sccc34)cc2)co1 [Compound 4, 4-[[4-(2-methyloxazol-4-yl)phenyl]methyl]-N-tetrahydropyran-4-yl-thieno[2,3-b]pyridine-6-carboxamide] |
